Data reported in patent publication US10934282B2, “Heteroaromatic modulators of the retinoid-related orphan receptor gamma” (LEO PHARMA A/S, priority 2016, dated 2021).

Assays:
[1] = biological target: T1, human RORgt nuclear receptor (RORgT ligand binding domain protein) (Homo sapiens, UniProt P51449); test: ROR-gamma binding assay (Scintillation Proximity Assay, displacement of [3H]-25-hydroxycholesterol); settings: EC50, SPA, 15 nM [3H]-25-Hydroxycholesterol, RORgT LBD 12 nM
T1 construct: purchased Proteros Biostructures GmbH
T1 sequence (P51449 with tags, fused parts or gaps): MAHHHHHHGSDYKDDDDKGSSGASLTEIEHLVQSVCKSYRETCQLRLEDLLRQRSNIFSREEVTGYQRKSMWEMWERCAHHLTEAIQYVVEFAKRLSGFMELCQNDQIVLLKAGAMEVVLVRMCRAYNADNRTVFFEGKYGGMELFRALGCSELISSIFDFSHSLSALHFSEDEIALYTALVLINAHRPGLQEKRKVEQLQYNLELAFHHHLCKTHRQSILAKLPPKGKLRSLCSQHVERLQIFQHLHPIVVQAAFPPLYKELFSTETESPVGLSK
Summary of the method: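 SPA competition of compound against 15 nM [3H]-25-hydroxycholesterol for His/FLAG-tagged human RORγt LBD (12 nM) on His-tag PVT beads, in 50 mM HEPES pH 7.4, 150 mM NaCl, 5 mM MgCl2, 0.1% BSA, 0.5% DMSO. 30 min preincubation, then ≥4 h at room temperature in darkness; EC50 by four-parameter fit.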

[2] = system: IL-17A in Human peripheral mononuclear cells; test: Human PBMC IL-17A assay; assay type: cell-based; settings: 72 h, EC50, antiCD3/antiCD28-coated beads, 3 days, alpha-LISA
Summary of the method: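 Cryopreserved human PBMC (130,000/well) stimulated with anti-CD3/anti-CD28-coated beads (1 cell per bead) in RPMI-1640 with 10% bovine calf serum, compounds at 0.1% DMSO, for 3 days. Supernatant IL-17A measured by AlphaLISA, viability by PrestoBlue; EC50 from 4-parameter non-linear regression.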

[3] = system: IL-17A levels in human peripheral blood; test: tissue or blood; assay type: cell-based; settings: 72 h, read-out: Human Whole blood IL-17A (nM)

SMILES	EC50 [1] [nM]	EC50 [2] [nM]	EC50 [3] [nM]
CC[C@H](O)c1nnc(Nc2cc(C)cc(CN3CCN(C(=O)OC(C)C)[C@@H](C)C3)c2C)o1 [Example 62, isopropyl (2S)-4-[[3-[[5-[(1S)-1-hydroxypropyl]-1,3,4-oxadiazol-2-yl]amino]-2,5-dimethyl-phenyl]methyl]-2-methyl-piperazine-1-carboxylate]	20.7	67.6	103
Cc1c(CN2CCN(C(=O)OC(C)C)[C@@H](C)C2)cc(Cl)cc1Nc1nnc([C@H](C)O)o1 [Example 63, isopropyl (2S)-4-[[5-chloro-3-[[5-[(1S)-1-hydroxyethyl]-1,3,4-oxadiazol-2-yl]amino]-2-methyl-phenyl]methyl]-2-methyl-piperazine-1-carboxylate]	34.8	62.1	187
Cc1c(CN2CCN(C(=O)OC(C)C)[C@@H](C)C2)cc(Cl)cc1Nc1nnc([C@H]2C[C@H](O)C2)o1 [Example 64, isopropyl (2S)-4-[[5-chloro-3-[[5-(3-hydroxycyclobutyl)-1,3,4-oxadiazol-2-yl]amino]-2-methyl-phenyl]methyl]-2-methyl-piperazine-1-carboxylate]	50.6	131	191
Cc1cc(CN2CCN(C(=O)OC(C)C)[C@@H](C)C2)c(C)c(Nc2nnc([C@@H]3CCCN3S(C)(=O)=O)o2)c1 [Example 65, isopropyl (2S)-4-[[2,5-dimethyl-3-[[5-[(2S)-1-methylsulfonylpyrrolidin-2-yl]-1,3,4-oxadiazol-2-yl]amino]phenyl]methyl]-2-methyl-piperazine-1-carboxylate]	47.9	58.7	107
Cc1cc(CN2CCN(C(=O)OC(C)C)[C@@H](C)C2)c(C)c(Nc2nnc([C@H](C)O)o2)c1 [Example 66, isopropyl (2S)-4-[[3-[[5-[(1S)-1-hydroxyethyl]-1,3,4-oxadiazol-2-yl]amino]-2,5-dimethyl-phenyl]methyl]-2-methyl-piperazine-1-carboxylate]	54.8	77.6	140
Cc1c(CN2CCN(C(=O)OC(C)C)[C@@H](C)C2)cc(Cl)cc1Nc1nnc(C2CNC(=O)C2)o1 (stereo partly drawn) [Example 67, isopropyl (2S)-4-[[5-chloro-2-methyl-3-[[5-(5-oxopyrrolidin-3-yl)-1,3,4-oxadiazol-2-yl]amino]phenyl]methyl]-2-methyl-piperazine-1-carboxylate]	62.2	47.2	597
Cc1cc(CN2CCN(C(=O)OC(C)C)[C@@H](C)C2)c(C)c(Nc2nnc([C@@H](C)N)o2)c1 [Example 68, isopropyl (2S)-4-[[3-[[5-[(1R)-1-aminoethyl]-1,3,4-oxadiazol-2-yl]amino]-2,5-dimethyl-phenyl]methyl]-2-methyl-piperazine-1-carboxylate]	103	182	552
Cc1cc(CN2CCN(C(=O)OCC(F)(F)F)[C@@H](C)C2)c(C)c(Nc2nnc([C@H]3C[C@@H](O)C3)o2)c1 [Example 70, 2,2,2-trifluoroethyl (2S)-4-[[3-[[5-(3-hydroxycyclobutyl)-1,3,4-oxadiazol-2-yl]amino]-2,5-dimethyl-phenyl]methyl]-2-methyl-piperazine-1-carboxylate]	52.2	78.5	227
CCOC(=O)N1CCN(Cc2cc(C)cc(Nc3nnc([C@@H](C)O)o3)c2C)C[C@@H]1C [Example 71, ethyl (2S)-4-[[3-[[5-[(1R)-1-hydroxyethyl]-1,3,4-oxadiazol-2-yl]amino]-2,5-dimethyl-phenyl]methyl]-2-methyl-piperazine-1-carboxylate]	62	223	307
Cc1cc(CN2CCN(C(=O)OC(C)C)[C@@H](C)C2)c(C)c(Nc2nnc([C@@H](O)CO)o2)c1 [Example 72, isopropyl (2S)-4-[[3-[[5-[(1S)-1,2-dihydroxyethyl]-1,3,4-oxadiazol-2-yl]amino]-2,5-dimethyl-phenyl]methyl]-2-methyl-piperazine-1-carboxylate]	81.6	262	258
Cc1c(CN2CCN(C(=O)OC(C)(C)C)[C@@H](C)C2)cc(Cl)cc1Nc1ncc(CO)o1 [Example 74, tert-butyl (2S)-4-[[5-chloro-3-[[5-(hydroxymethyl)oxazol-2-yl]amino]-2-methyl-phenyl]methyl]-2-methyl-piperazine-1-carboxylate]	71.8	408	946
Cc1cc(CN2CCN(C(=O)O[C@H](C)C(F)(F)F)[C@@H](C)C2)c(C)c(Nc2nnc([C@@H](O)CO)o2)c1 [Example 75, [(1R)-2,2,2-trifluoro-1-methyl-ethyl] (2S)-4-[[3-[[5-[(1S)-1,2-dihydroxyethyl]-1,3,4-oxadiazol-2-yl]amino]-2,5-dimethyl-phenyl]methyl]-2-methyl-piperazine-1-carboxylate]	32.4	52.9	158
Cc1cc(CN2CCN(C(=O)OC(C)C)[C@@H](C)C2)c(C)c(Nc2nnc([C@@H]3CCOC3)o2)c1 [Example 76, isopropyl (2S)-4-[[2,5-dimethyl-3-[[5-[(3R)-tetrahydrofuran-3-yl]-1,3,4-oxadiazol-2-yl]amino]phenyl]methyl]-2-methyl-piperazine-1-carboxylate]	25.6	60.5	112
Cc1cc(CN2CCN(C(=O)OC(C)C)[C@@H](C)C2)c(C)c(Nc2nnc([C@H]3NCC[C@H]3O)o2)c1 [Example 77, isopropyl (2S)-4-[[3-[[5-[(2S,3R)-3-hydroxypyrrolidin-2-yl]-1,3,4-oxadiazol-2-yl]amino]-2,5-dimethyl-phenyl]methyl]-2-methyl-piperazine-1-carboxylate]	61.2	180	368
Cc1cc(CN2CCN(C(=O)C3CCCC3)[C@@H](C)C2)c(C)c(Nc2nnc([C@H]3NCC[C@H]3O)o2)c1 [Example 78, cyclopentyl-[(2S)-4-[[3-[[5-[(2S,3R)-3-hydroxypyrrolidin-2-yl]-1,3,4-oxadiazol-2-yl]amino]-2,5-dimethyl-phenyl]methyl]-2-methyl-piperazin-1-yl]methanone]	72.5	95.9	157
Cc1cc(CN2CCN(C(=O)C3CCC(F)(F)C3)[C@@H](C)C2)c(C)c(Nc2nnc([C@H]3NCC[C@H]3O)o2)c1 (stereo partly drawn) [Example 79, (3,3-difluorocyclopentyl)-[(2S)-4-[[3-[[5-[(2S,3R)-3-hydroxypyrrolidin-2-yl]-1,3,4-oxadiazol-2-yl]amino]-2,5-dimethyl-phenyl]methyl]-2-methyl-piperazin-1-yl]methanone]	274	1220	3530
Cc1cc(CN2CCN(C(=O)OC(C)C)[C@@H](C)C2)c(C)c(Nc2nnc([C@@H]3CNC(=O)C3)o2)c1 [Example 83, isopropyl (2S)-4-[[2,5-dimethyl-3-[[5-[(3S)-5-oxopyrrolidin-3-yl]-1,3,4-oxadiazol-2-yl]amino]phenyl]methyl]-2-methyl-piperazine-1-carboxylate]	67	123	240
